# Laboratory results from publication PMC6122390, “Synthesis of 1,4-imino-L-lyxitols modified at C-5 and their evaluation as inhibitors of GH38 α-mannosidases” (Beilstein Journal of Organic Chemistry, 2018).
# Where two headings read alike, the source gives them in different places.
# Legend:
# [1] = target: Drosophila melanogaster Golgi α-mannosidase II (GMIIb) (Drosophila melanogaster, UniProt Q9VF33); experiment: Inhibition of Golgi α-mannosidase II (GMIIb), pNP-Man substrate; type: biochemical; conditions: for IC50: 2 mM pNP-Man; for fold decrease in inhibition activity against GMIIb in comparison with 1a: relative to 1a
# Procedure: (§1) The purification and characterization of recombinant Drosophila melanogaster Golgi α-mannosidase II [9] (GMIIb) and lysosomal α-mannosidase II (LManII) was carried out as already described. Activity of prepared mannosidases was measured using p-nitrophenyl-α-D-mannopyranoside (pNP-Man; Sigma-Aldrich) as a substrate at 2 mM concentration prepared from a 100 mM stock in dimethyl sulfoxide by dilution in 50 mM acetate buffer at optimal pH for the enzymes (Jack bean α-mannosidase (JBMan) at pH 5.0, Golgi α-mannosidase (GMIIb) at pH 6.0 and lysosomal α-mannosidase (LManII) at pH 5.2) and 0.5 μL of the enzyme (0.05 µg of protein for Jack bean α-mannosidase), in a total volume of 50 μL for 1–2 h at 37 °C. GMIIb was assayed in the presence of 0.5 mM CoCl2. Pyrrolidines 2–5 used in biochemical evaluation were lyophilized before use. The inhibitors 2–5 were pre-incubated with the enzyme in the buffer for 5 min at rt and the reaction was started by addition of the substrate. The reactions were terminated with two volumes (0.1 mL) of 0.5 M sodium carbonate and the production of p-nitrophenol was measured at 405 nm using a multimode reader Mithras LB943 (Berthold Technologies). The IC50 value was determined with 2 mM pNP-Man. All biochemical assays were performed in 96 well microplates in triplicate.
# [2] = target: T1, Jack bean α-mannosidase (JBMan) (Canavalia ensiformis, UniProt C0HJB3); experiment: Inhibition of jack bean α-mannosidase (JBMan), pNP-Man substrate; type: biochemical; conditions: n.i. = no inhibition, 2 mM pNP-Man; for inhibition at 2000 µM: pH 5, 2 mM inhibitor, read-out: JBMan (%) inhibition in the presence of 2 mM inhibitor concentration; for JBMan (%) inhibition in the presence of 2 mM inhibitor concentration: pH 5.0
# T1 construct: purchased
# T1 sequence (C0HJB3 1-981): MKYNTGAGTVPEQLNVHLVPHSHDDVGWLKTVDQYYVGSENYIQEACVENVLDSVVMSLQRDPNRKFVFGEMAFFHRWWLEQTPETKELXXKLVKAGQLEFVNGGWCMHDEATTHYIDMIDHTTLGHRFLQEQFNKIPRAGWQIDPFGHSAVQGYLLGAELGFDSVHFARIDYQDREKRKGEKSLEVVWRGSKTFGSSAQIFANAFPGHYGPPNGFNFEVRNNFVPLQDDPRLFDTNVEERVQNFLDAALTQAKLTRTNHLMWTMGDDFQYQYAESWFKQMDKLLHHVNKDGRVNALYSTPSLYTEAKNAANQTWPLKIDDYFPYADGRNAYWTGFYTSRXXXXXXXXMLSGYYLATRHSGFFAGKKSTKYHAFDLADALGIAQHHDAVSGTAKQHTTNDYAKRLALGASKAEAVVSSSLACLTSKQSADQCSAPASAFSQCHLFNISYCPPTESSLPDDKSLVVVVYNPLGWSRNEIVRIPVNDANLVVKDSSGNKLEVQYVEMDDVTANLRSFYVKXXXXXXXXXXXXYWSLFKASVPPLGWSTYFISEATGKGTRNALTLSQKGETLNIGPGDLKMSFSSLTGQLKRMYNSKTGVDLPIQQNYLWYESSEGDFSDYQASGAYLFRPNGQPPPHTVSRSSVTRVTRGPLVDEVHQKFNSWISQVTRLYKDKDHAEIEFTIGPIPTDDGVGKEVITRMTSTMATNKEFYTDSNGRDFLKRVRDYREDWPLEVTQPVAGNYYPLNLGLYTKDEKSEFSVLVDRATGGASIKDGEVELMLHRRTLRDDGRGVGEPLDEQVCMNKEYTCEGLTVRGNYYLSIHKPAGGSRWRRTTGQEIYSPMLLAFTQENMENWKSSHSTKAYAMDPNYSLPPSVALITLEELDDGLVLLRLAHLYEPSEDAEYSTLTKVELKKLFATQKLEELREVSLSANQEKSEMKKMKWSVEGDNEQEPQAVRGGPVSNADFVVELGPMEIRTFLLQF
# Procedure: as §1
# [3] = target: lysosomal α-mannosidase II (LManII) (Drosophila melanogaster, UniProt Q9VKV1); experiment: Inhibition of lysosomal α-mannosidase II (LManII), pNP-Man substrate; type: biochemical; conditions: n.i. = no inhibition, 2 mM pNP-Man, pH 5.2
# Procedure: as §1
# [4] = pH 6.0, 0.5 mM CoCl2, 37 °C, read-out: GMIIb [IC50 (M)]
# Chain of lysosomal α-mannosidase II (LManII) (Q9VKV1 entry or part of it): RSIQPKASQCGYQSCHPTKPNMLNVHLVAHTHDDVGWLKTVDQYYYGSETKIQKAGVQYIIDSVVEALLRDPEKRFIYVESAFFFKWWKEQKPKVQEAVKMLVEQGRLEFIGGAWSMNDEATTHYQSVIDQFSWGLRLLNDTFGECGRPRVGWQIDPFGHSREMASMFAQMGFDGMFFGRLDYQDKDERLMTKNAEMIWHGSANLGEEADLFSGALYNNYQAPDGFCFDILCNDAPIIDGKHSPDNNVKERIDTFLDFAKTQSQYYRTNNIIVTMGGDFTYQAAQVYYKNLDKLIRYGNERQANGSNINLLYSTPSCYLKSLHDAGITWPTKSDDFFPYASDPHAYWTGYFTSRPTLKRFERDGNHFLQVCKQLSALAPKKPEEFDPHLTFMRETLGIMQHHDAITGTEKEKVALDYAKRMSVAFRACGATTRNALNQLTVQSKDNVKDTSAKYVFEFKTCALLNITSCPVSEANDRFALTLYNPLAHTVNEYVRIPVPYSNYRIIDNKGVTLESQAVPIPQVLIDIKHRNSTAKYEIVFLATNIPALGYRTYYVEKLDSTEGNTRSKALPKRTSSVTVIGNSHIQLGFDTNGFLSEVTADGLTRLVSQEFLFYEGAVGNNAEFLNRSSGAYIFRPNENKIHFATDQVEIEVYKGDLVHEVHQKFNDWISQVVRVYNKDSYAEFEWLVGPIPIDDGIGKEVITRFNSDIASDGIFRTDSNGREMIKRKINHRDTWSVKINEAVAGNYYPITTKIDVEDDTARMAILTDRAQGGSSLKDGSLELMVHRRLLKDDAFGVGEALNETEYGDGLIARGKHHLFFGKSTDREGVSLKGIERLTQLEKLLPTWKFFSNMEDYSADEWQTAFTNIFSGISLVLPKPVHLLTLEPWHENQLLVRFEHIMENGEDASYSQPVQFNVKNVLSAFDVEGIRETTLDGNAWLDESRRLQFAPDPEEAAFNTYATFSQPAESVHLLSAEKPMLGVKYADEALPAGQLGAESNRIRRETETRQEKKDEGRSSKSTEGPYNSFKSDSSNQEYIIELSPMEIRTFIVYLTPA
# Chain of Drosophila melanogaster Golgi α-mannosidase II (GMIIb) (Q9VF33 entry or part of it): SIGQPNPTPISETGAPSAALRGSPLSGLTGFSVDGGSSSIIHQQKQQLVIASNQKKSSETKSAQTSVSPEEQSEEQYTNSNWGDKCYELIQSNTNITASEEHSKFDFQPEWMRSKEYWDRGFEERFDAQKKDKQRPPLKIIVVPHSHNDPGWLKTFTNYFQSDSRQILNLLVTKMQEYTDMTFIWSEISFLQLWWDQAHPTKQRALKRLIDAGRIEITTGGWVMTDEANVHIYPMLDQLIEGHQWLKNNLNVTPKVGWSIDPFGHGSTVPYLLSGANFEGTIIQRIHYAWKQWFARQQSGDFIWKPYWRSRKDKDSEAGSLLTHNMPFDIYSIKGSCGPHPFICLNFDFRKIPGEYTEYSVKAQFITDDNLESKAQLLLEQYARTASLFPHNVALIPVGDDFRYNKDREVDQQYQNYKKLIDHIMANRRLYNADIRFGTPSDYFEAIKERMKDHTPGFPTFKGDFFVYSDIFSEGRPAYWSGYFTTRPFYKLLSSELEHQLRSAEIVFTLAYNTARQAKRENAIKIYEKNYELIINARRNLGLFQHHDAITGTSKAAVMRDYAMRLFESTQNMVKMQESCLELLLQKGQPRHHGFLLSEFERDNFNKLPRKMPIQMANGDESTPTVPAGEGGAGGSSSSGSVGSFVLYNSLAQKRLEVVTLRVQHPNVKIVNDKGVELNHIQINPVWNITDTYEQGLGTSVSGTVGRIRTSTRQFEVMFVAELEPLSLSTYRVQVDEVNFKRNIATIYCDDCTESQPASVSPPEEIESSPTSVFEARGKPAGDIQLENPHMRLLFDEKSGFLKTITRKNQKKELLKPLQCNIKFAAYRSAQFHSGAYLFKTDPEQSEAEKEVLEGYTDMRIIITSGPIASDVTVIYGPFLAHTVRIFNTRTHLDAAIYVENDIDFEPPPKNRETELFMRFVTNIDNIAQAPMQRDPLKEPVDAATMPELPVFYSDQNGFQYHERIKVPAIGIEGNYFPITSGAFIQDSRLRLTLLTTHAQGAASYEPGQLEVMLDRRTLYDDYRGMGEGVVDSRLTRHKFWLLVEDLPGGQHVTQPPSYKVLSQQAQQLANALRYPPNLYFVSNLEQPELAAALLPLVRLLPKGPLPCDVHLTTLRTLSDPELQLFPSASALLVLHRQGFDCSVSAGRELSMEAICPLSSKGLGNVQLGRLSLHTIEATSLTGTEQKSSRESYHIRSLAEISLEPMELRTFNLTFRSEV
"IC50 [1, 4]",inhibition at 2000 µM [2],melting point,LmanII inhibition in the presence of 2 mM inhibitor concentration [3],fold decrease in inhibition activity against GMIIb in comparison with 1a [1],JBMan (%) inhibition in the presence of 2 mM inhibitor concentration [2],"IC50 ([1]; pH 6.0, read-out: GMIIb IC50)",Compound
0.00195 M,21%,,n.i.^a,about 25 fold,,,"C[C@H](O)[C@H]1[C@@H](O)[C@@H](O)CN1Cc1ccccc1 [Compound 5a, (2S,3R,4S)-1-Benzyl-2-((S)-1-hydroxyethyl)pyrrolidine-3,4-diol]"
0.0019 M,17%,,n.i.^a,,,,C[C@@H](O)[C@H]1[C@@H](O)[C@@H](O)CN1Cc1ccc(I)cc1 [Compound 4c]
0.00265 M,40%,,n.i.^a,,,,"C[C@H](O)[C@H]1[C@@H](O)[C@@H](O)CN1Cc1ccc(Br)cc1 [Compound 5b, (2S,3R,4S)-1-(4-Bromobenzyl)-2-((S)-1-hydroxyethyl)pyrrolidine-3,4-diol]"
0.00295 M,40%,,n.i.^a,,38%,,"C[C@H](O)[C@H]1[C@@H](O)[C@@H](O)CN1Cc1ccc(I)cc1 [Compound 5c, (2S,3R,4S)-1-(4-Iodobenzyl)-2-((S)-1-hydroxyethyl)pyrrolidine-3,4-diol]"
0.0018 M,2%,,n.i.^a,about 25 fold,,,C[C@@H](O)[C@H]1[C@@H](O)[C@@H](O)CN1Cc1ccccc1 [Compound 4a]
0.0016 M,4%,,n.i.^a,,,,C[C@@H](O)[C@H]1[C@@H](O)[C@@H](O)CN1Cc1ccc(Br)cc1 [Compound 4b]

# The next lines start with the molecule.
Compound,"IC50 [1, 4]",inhibition at 2000 µM [2],melting point,LmanII inhibition in the presence of 2 mM inhibitor concentration [3],fold decrease in inhibition activity against GMIIb in comparison with 1a [1],JBMan (%) inhibition in the presence of 2 mM inhibitor concentration [2],"IC50 ([1]; pH 6.0, read-out: GMIIb IC50)"
CC[C@H]1[C@@H](O)[C@@H](O)CN1Cc1ccccc1 [Compound 3a],0.00075 M,3%,76 to 78 °C,n.i.^a,,,
C[C@H]1[C@@H](O)[C@@H](O)CN1Cc1ccc(Br)cc1 [Compound 2b],0.00035 M,,,n.i.^a,,n.i.,
CC[C@H]1[C@@H](O)[C@@H](O)CN1Cc1ccc(Br)cc1 [Compound 3b],0.00095 M,14%,,n.i.^a,,,
C[C@H]1[C@@H](O)[C@@H](O)CN1Cc1ccccc1 [Compound 2a],0.00036 M,,,n.i.^a,,n.i.,
CC[C@H]1[C@@H](O)[C@@H](O)CN1Cc1ccc(I)cc1 [Compound 3c],0.00045 M,39%,,n.i.^a,,,< 0.0005 M
C[C@H]1[C@@H](O)[C@@H](O)CN1Cc1ccc(I)cc1 [Compound 2c],0.0003 M,,,n.i.^a,,n.i.,
